What was measured:
[1] = tested on: human brown adipocyte cell line; test: Cellular respiration in human brown adipocytes; type: cell-based; details: 10 μM for 4 days
Experimental: Human immortalized brown and white preadipocytes were obtained from Dr. Yu-Hua Tseng (Joslin Diabetes Center, Harvard Medical School, USA). The generation of the two cell lines from human neck adipose tissue biopsies and immortalization was performed as previously described but from a different donor. Cells were cultured in high glucose DMEM supplemented with 10% FBS and antibiotics. Two days after reaching confluence, cells were treated with 30 μM biotin, 500 nM insulin, 17 μM pantothenate, 100 nM dexamethasone, 2 nM 3,3′,5-Triiodo-L-thyronine, 500 μM IBMX, 30 μM indomethacin and 1 μM rosiglitazone, for 12 days. […]
Cellular respiration was measured using a Seahorse XF24 or XF96 analyzer (Agilent) following known protocols Immortalized brown adipocytes were differentiated in 6-well plates and replated in the Seahorse XF24 plates at a density of 50,000 cells per well using trypsin and collagenase type II. […] Oxygen consumption rates were measured before and after the sequential injection of 1 μM oligomycin, 1 μM FCCP, and 0.5 μM rotenone/antimycin A. For these cells, results were normalized to cell count determined by nuclei fluorescent staining with Hoescht staining imaged on Cytation 5 Imaging Reader and analysis with Gen5 software (BioTek). […] Maximal respiration was determined after FCCP injection.

UCP1 = test: Gene expression in immortalized human brown adipocytes; type: cell-based; details: 10 μM for 4 days
Experimental: Human immortalized brown and white preadipocytes were obtained from Dr. Yu-Hua Tseng (Joslin Diabetes Center, Harvard Medical School, USA). The generation of the two cell lines from human neck adipose tissue biopsies and immortalization was performed as previously described but from a different donor. Cells were cultured in high glucose DMEM supplemented with 10% FBS and antibiotics. Two days after reaching confluence, cells were treated with 30 μM biotin, 500 nM insulin, 17 μM pantothenate, 100 nM dexamethasone, 2 nM 3,3′,5-Triiodo-L-thyronine, 500 μM IBMX, 30 μM indomethacin and 1 μM rosiglitazone, for 12 days. Afterwards, cells were treated with 30 μM biotin, 500 nM insulin, 17 μM pantothenate and 2 nM 3,3′,5-Triiodo-L-thyronine (Maintenance media) for 2 days with end-point assays performed on day 18, and for 5 days with end-point assays performed on day 21, for the brown and white adipocytes cells, respectively.
Mouse RNA levels were measured by qPCR according to known methods. Data were normalized to B2m and Tbp reference genes. Human RNA was extracted using an RNA Mini Plus kit (Zymo) and gene expression determined by Taqman assay. The 1-step qPCR was run on a QuantStudio 12K Flex Real Time PCR System (ThermoFisher) using the following protocol: 50° C. for 5 minutes, 95° C. for 20 seconds, 40 cycles of 95° C. for 15 seconds and 60° C. for 60 seconds. […]

AKAP1 = target: T1, AKAP1 (Mus musculus, UniProt O08715); test: Cellular Thermal Shift Assay (CETSA) in brown adipocytes, AKAP1; type: binding; details: 10 μM for 8 h, heated at 55.8-63.3° C.
T1 construct: from tissue; host or cells: mouse brown adipose tissue (BAT) lysate; also mouse brown adipocyte extracts
T1 sequence (O08715 30-857): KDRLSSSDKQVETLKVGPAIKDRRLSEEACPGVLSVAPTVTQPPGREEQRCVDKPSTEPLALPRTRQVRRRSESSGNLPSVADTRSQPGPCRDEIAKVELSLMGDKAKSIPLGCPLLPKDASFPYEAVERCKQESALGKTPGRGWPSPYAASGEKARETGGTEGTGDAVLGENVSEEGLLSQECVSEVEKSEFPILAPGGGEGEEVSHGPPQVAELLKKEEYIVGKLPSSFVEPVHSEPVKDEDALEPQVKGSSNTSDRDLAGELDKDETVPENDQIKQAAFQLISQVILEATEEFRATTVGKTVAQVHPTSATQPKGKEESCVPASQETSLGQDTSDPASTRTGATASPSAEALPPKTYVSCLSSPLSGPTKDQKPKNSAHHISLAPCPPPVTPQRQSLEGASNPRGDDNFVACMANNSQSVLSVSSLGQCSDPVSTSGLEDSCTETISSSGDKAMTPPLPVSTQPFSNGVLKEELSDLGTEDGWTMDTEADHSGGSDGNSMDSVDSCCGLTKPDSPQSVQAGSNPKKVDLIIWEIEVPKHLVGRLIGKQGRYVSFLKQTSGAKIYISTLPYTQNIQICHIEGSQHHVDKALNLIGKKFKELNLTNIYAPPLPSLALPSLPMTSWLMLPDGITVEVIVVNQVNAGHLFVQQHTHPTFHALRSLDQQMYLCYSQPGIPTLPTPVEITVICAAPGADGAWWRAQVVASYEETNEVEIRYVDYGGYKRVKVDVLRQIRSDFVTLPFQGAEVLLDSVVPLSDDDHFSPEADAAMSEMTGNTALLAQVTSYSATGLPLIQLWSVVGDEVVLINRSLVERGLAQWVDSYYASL
Experimental: CETSA assays were performed according to known methods. Briefly, differentiated brown adipocytes (one 10 cm dish per treatment) were treated with vehicle or compounds, trypsinized, counted, and re-suspended in approximately 450 μl PBS containing protease inhibitors (volumes were adjusted to have the same number of cells in each treatment). For each sample, 18 μl was distributed into each of 7 PCR tubes. Samples were heated using a thermocycler with a temperature gradient (iCycler, Biorad) for 3 min, followed by 3 min at room temperature, and then snap-frozen in liquid N2. After two freeze-thaw cycles, samples were centrifuged at 20,000 g for 15 min at 4° C., and the supernatants were transferred to another set of tubes. Proteins were analyzed by immunoblotting.
The PKA tetramer consists of two catalytic and two regulatory subunits. In the mouse, these are catalytic subunits C-α and C-β, and regulatory subunits RI and RII, each with α and β isoforms (RI-α, RI-β, RII-α, RII-β). […]
The potential interaction of Z160 with PKA subunits and AKAPs was assessed first by identifying which PKA subunits and AKAP isoforms are normally present in BAT. […] To perform the CETSA assays, cultured brown adipocytes were incubated with 10 μM Z160 for 8 h, after which the thermal shift was analyzed by Western blot.

With `COc1ccc(NC(=O)CSc2nc3ccccc3c(=O)[nH]2)c(OC)c1` [Z160] the maximal respiration [1] was “increased”, the “mitochondrial respiration (primarily uncoupled respiration)” value [1] was “increased” and the CIDEA expression (UCP1) was “increased expression”. For the same compound, the UCP1 expression (UCP1) was roughly 7 fold and the “heat stability of AKAP1” value (AKAP1) was “increased the heat stability”.

— patent US12661355B2, “Compounds and methods for inducing UCP1 expression” (The Regents of the University of California, priority 2020, dated 2026)
